# Measurements: ChEMBL document CHEMBL1132534, “Predicting relative binding free energies of tacrine-huperzine A hybrids as inhibitors of acetylcholinesterase” (J Med Chem, 1999)
# Target: Acetylcholinesterase (Homo sapiens) (UniProt P22303)
# Assay: Inhibitory activity against acetylcholinesterase compared to the IC50 of (-)-9M-HTH
# Acetylcholinesterase (Homo sapiens), sequence (P22303 whole entry): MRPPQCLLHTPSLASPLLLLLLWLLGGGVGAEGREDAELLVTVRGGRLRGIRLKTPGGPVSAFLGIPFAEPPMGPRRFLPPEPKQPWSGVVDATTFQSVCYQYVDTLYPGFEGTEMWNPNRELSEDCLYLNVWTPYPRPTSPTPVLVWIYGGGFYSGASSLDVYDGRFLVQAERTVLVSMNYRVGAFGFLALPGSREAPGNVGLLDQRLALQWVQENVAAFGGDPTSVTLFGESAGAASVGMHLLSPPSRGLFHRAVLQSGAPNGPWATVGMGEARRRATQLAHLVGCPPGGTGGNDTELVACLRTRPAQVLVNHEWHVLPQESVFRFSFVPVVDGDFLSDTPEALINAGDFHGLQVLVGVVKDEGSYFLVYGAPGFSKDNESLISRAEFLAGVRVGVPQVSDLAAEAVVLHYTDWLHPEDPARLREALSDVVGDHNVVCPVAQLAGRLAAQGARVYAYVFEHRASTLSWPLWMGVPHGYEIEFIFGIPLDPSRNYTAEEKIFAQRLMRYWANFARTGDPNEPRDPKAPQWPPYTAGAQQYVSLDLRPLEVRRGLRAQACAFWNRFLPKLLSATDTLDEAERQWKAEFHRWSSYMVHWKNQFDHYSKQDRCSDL
structure (smiles),measurement,value
CC1=C[C@@H]2Cc3nc4cc(F)ccc4c(N)c3[C@H](C1)C2,Fold IC50,15
